In patent US20080227713A1, “Oxidized Human Bnp” (priority 2005, published 2008):
Marks after values point to notes of the source that are not given here.

Legend:
plasma cyclic GMP [1] = experiment: Plasma cyclic GMP during dose-escalating continuous intravenous infusion in conscious rabbits; assay type: in vivo; settings: rabbit; for Mean Plasma Cyclic GMP ± SD: n = 6
From the text: (§1) New Zealand White male rabbits (R & R Rabbitry, WA) weighing 2.5 to 3.0 kg, were used in the study. Upon receipt, the animals were allowed a 1-week acclimation period at the animal facility to ensure proper health status prior to the study. On the day of the study, the rabbits were weighed and placed in an open top plexiglass restrainers with adjustable plexiglass and nylon covers. The ears were shaved, 2% Lidocaine HCl (Xylocalne jelly, Astra, Westborough, Mass.) was applied topically on the surface of the ears, and IV catheters (Angiocath, Becton Dickinson, Utah) fitted with heparin locks were inserted into the intermedial branch of the peripheral ear vein for drug administration and into the central ear artery for repeated blood sampling.
(§2) Blood samples were drawn 20 minutes prior to and 0, 50, 55, 60, 110, 115, 120, 170, 175, and 180 minutes following initiation of the infusion. […] Blood samples were taken at 20 minutes prior to dosing, immediately prior to dosing and 5, 10, 15, 30, 60, and 90 minutes after dosing. Blood samples (3 mL) was drawn at each time point and the volume replaced with an equal volume of 0.9% NaCl. Blood was collected into EDTA coated tubes containing aprotinin (150 kallikrein inhibitory units/tube) and centrifuged immediately.
(§3) Plasma cyclic GMP levels were determined by radioimmunoassay (DuPont, Boston, Mass.). […] Separation of the bound from free antigen was performed using a pre-reacted primary and secondary antibody complex. Prior to the assay, the plasma samples were extracted with ethanol and the supernate evaporated to dryness in a speed vac concentrator (Savant Instruments, Holbrook, N.Y.). The dried samples were reconstituted with sodium acetate buffer. Plasma cyclic GMP levels were determined by interpolation from the standard curve (0.01 to 10 pmol/mL).

[2] = Plasma peptide levels (EIA) during dose-escalating continuous intravenous infusion in conscious rabbits; assay type: in vivo; settings: rabbit; for Plasma steady state concentration: n = 6
From the text: as §1, §2
(§4) The plasma samples were diluted appropriately with pooled normal rabbit plasma prior to assay. […] Levels of the biotinylated probe were measured by using a sensitive enzyme based detection system, avidin-HRP, and a […] that provided a colorimetric endpoint.

[3] = Plasma peptide levels (EIA) after a single intravenous bolus in conscious rabbits; settings: male, New Zealand White, in vivo, 30 ug/kg, rabbit, single iv bolus 30 μg/kg, n = 4
From the text: as §1, §2, §4

plasma cyclic GMP [4] = experiment: Plasma cyclic GMP after a single intravenous bolus in conscious rabbits; assay type: in vivo; settings: rabbit, single iv bolus 30 μg/kg, n = 4
From the text: as §1, §2, §3

Compound: CC[C@H](C)[C@@H]1NC(=O)[C@H](CCCNC(=N)N)NC(=O)[C@H](CC(=O)O)NC(=O)[C@H](CCSC)NC(=O)[C@H](CCCCN)NC(=O)[C@H](CCCNC(=N)N)NC(=O)CNC(=O)[C@H](Cc2ccccc2)NC(=O)[C@@H](NC(=O)CNC(=O)[C@H](CO)NC(=O)CNC(=O)[C@H](CCC(N)=O)NC(=O)[C@@H](NC(=O)[C@H](CCSC)NC(=O)[C@H](CCCCN)NC(=O)[C@@H]2CCCN2C(=O)[C@@H](N)CO)C(C)C)CSSC[C@@H](C(=O)N[C@@H](CCCCN)C(=O)N[C@H](C(=O)N[C@@H](CC(C)C)C(=O)N[C@@H](CCCNC(=N)N)C(=O)N[C@@H](CCCNC(=N)N)C(=O)N[C@@H](Cc2c[nH]cn2)C(=O)O)C(C)C)NC(=O)CNC(=O)[C@H](CC(C)C)NC(=O)CNC(=O)[C@H](CO)NC(=O)[C@H](CO)NC(=O)[C@H](CO)NC(=O)[C@H](CO)NC1=O [hBNP, Ser^1-Pro^2-Lys^3-Met^4-Val^5-Gln^6-Gly^7-Ser^8-Gly^9-Cys^10-Phe^11-Gly^12-Arg^13-Lys^14-Met^15-Asp^16-Arg^17-Ile^18-Ser^19-Ser^20-Ser^21-Ser^22-Gly^23-Leu^24-Gly^25-Cys^26-Lys^27-Val^28-Leu^29-Arg^30-Lys^31-His^32]
- Mean Plasma Cyclic GMP ± SD (plasma cyclic GMP [1]; 0 μg/kg/min (saline), 0 min): 30 ± 16 pmol/mL
- Mean Plasma Cyclic GMP ± SD (plasma cyclic GMP [1]; 0 μg/kg/min (saline), −20 min): 34 ± 15 pmol/mL
- Change of plasma cyclic GMP during continuous infusion (plasma cyclic GMP [1]; 0.05, 0.1, 0.2 μg/kg/min, in words): dose-related increase in plasma cyclic GMP
- Mean Plasma Cyclic GMP ± SD (plasma cyclic GMP [1]; iv infusion 0.05 μg/kg/min, 50 min): 68 ± 33 pmol/mL
- Mean Plasma Cyclic GMP ± SD (plasma cyclic GMP [1]; iv infusion 0.05 μg/kg/min, 55 min): 87 ± 29 pmol/mL
- Mean Plasma Cyclic GMP ± SD (plasma cyclic GMP [1]; iv infusion 0.05 μg/kg/min, 60 min): 92 ± 34 pmol/mL
- Mean Plasma Cyclic GMP ± SD (plasma cyclic GMP [1]; iv infusion 0.1 μg/kg/min, 110 min): 131 ± 38 pmol/mL
- Mean Plasma Cyclic GMP ± SD (plasma cyclic GMP [1]; iv infusion 0.1 μg/kg/min, 115 min): 122 ± 35 pmol/mL
- Mean Plasma Cyclic GMP ± SD (plasma cyclic GMP [1]; iv infusion 0.1 μg/kg/min, 120 min): 125 ± 27 pmol/mL
- Mean Plasma Cyclic GMP ± SD (plasma cyclic GMP [1]; iv infusion 0.2 μg/kg/min, 170 min): 159 ± 37 pmol/mL
- Mean Plasma Cyclic GMP ± SD (plasma cyclic GMP [1]; iv infusion 0.2 μg/kg/min, 175 min): 170 ± 43 pmol/mL
- Mean Plasma Cyclic GMP ± SD (plasma cyclic GMP [1]; iv infusion 0.2 μg/kg/min, 180 min): 145 ± 31 pmol/mL
- level at 50 min ([2]; male, New Zealand White, plasma, 0.05 ug/kg/min, iv infusion 0.05 μg/kg/min, 50 min, N = 6): 1.39 ng/mL
- level at 55 min ([2]; male, New Zealand White, plasma, 0.05 ug/kg/min, iv infusion 0.05 μg/kg/min, 55 min, N = 6): 1.28 ng/mL
- level at 1 h ([2]; male, New Zealand White, plasma, 0.05 ug/kg/min, iv infusion 0.05 μg/kg/min, 60 min, N = 6): 1.29 ng/mL
- level at 110 min ([2]; male, New Zealand White, plasma, 0.1 ug/kg/min, iv infusion 0.1 μg/kg/min, 110 min, N = 6): 3.85 ng/mL
- level at 115 min ([2]; male, New Zealand White, plasma, 0.1 ug/kg/min, iv infusion 0.1 μg/kg/min, 115 min, N = 6): 3.7 ng/mL
- level at 2 h ([2]; male, New Zealand White, plasma, 0.1 ug/kg/min, iv infusion 0.1 μg/kg/min, 120 min, N = 6): 2.75 ng/mL
- level at 170 min ([2]; male, New Zealand White, plasma, 0.2 ug/kg/min, iv infusion 0.2 μg/kg/min, 170 min, N = 6): 7.4 ng/mL
- level at 175 min ([2]; male, New Zealand White, plasma, 0.2 ug/kg/min, iv infusion 0.2 μg/kg/min, 175 min, N = 6): 8.07 ng/mL
- level at 3 h ([2]; male, New Zealand White, plasma, 0.2 ug/kg/min, iv infusion 0.2 μg/kg/min, 180 min, N = 6): 6.59 ng/mL
- level at 0 h ([2]; male, New Zealand White, plasma, iv, 0 ug/kg/min, 0 μg/kg/min (before infusion), 0 min, N = 6): 0.146 ng/mL
- level at -20 min ([2]; male, New Zealand White, plasma, iv, 0 ug/kg/min, 0 μg/kg/min (before infusion), −20 min, N = 6): 0.166 ng/mL
- Plasma steady state concentration ([2]; infusion rate 0.05 μg/kg/min): 1319 ± 615 pg/mL
- Plasma steady state concentration ([2]; infusion rate 0.1 μg/kg/min): 3434 ± 952 pg/mL
- Plasma steady state concentration ([2]; infusion rate 0.2 μg/kg/min): 7357 ± 1569 pg/mL
- level at 5 min ([3]; 5 min): 50.1 ng/mL
- level at 10 min ([3]; 10 min): 12 ng/mL
- level at […] ([3]; 15 min): 4.67 ng/mL
- level at 0.5 h ([3]; 30 min): 1.21 ng/mL
- level at 1 h ([3]; 60 min): 0.122 ng/mL
- level at […] ([3]; 90 min): 0.051 ng/mL
- Plasma Cyclic GMP (plasma cyclic GMP [4]; 0 min (before dosing)): 47 pmol/mL
- Plasma Cyclic GMP (plasma cyclic GMP [4]; 5 min): 201* pmol/mL
- Plasma Cyclic GMP (plasma cyclic GMP [4]; 10 min): 214* pmol/mL
- Plasma Cyclic GMP (plasma cyclic GMP [4]; 15 min): 189* pmol/mL
- Plasma Cyclic GMP (plasma cyclic GMP [4]; 30 min): 146 pmol/mL
- Plasma Cyclic GMP (plasma cyclic GMP [4]; 60 min): 65 pmol/mL
- Plasma Cyclic GMP (plasma cyclic GMP [4]; 90 min): 40 pmol/mL
- Plasma Cyclic GMP (plasma cyclic GMP [4]; −20 min (before dosing)): 46 pmol/mL
